The supplement of paper PMC12613149

Legend:
[1] = reversed-phase LC retention time (C18, 15 min MeOH gradient); higher = more hydrophobic / later elution
[2] = collision cross section (TIMS, N2 drift gas) of the primary ion; higher = larger gas-phase ion size
[3] = ionization mode: ESI+, ion species: [M+H]+
[4] = ionization mode: ESI-, ion species: [M-H]-
[5] = ionization mode: ESI+, ion species: [M]+

reversed-phase LC retention time [1, 4] | collision cross section [2, 4] | Compound | reversed-phase LC retention time [1, 3] | collision cross section [2, 3] | reversed-phase LC retention time [1, 5] | collision cross section [2, 5]
 |  | CNC1(c2ccccc2Cl)CCCCC1=O (configuration not stated) [Ketamine] | 8.79 min | 149.17 Å² |  | 
 |  | CC(C)c1ccc(NC(=O)N(C)C)cc1 [Isoproturon] | 13 min | 151.88 Å² |  | 
 |  | C=C1C[C@@H]2[C@H](CC[C@]3(C)C(=O)CC[C@@H]23)[C@@]2(C)C=CC(=O)C=C12 [Exemestane] | 13.9 min | 173.31 Å² |  | 
19.5 min | 292.22 Å² | CC[C@H](C)[C@H]1O[C@]2(CC[C@@H]1C)C[C@@H]1C[C@@H](C/C=C(\C)[C@@H](O[C@H]3C[C@H](OC)[C@@H](O[C@H]4C[C@H](OC)[C@@H](O)[C@H](C)O4)[C@H](C)O3)[C@@H](C)/C=C/C=C3\CO[C@@H]4[C@H](O)C(C)=C[C@@H](C(=O)O1)[C@]34O)O2 [Ivermectin B1a] |  |  |  | 
11.6 min | 129.23 Å² | c1ccc2c(c1)[nH]c1ccncc12 [5-Carboline] | 7.64 min | 132.8 Å² |  | 
 |  | CCOC(=O)CC(O)(CC(=O)OCC)C(=O)OCC [Triethylcitrate] | 11.8 min | 159.4 Å² |  | 
15.3 min | 192.83 Å² | CC(C)(c1cc(Br)c(O)c(Br)c1)c1cc(Br)c(O)c(Br)c1 [Tetrabromobisphenol A] |  |  |  | 
 |  | N#CCNC(=O)c1cnccc1C(F)(F)F [Flonicamid] | 7.31 min | 149.83 Å² |  | 
16.5 min | 184.43 Å² | CC(C)c1ccc2c(c1)CC[C@H]1[C@](C)(C(=O)O)CCC[C@]21C [Dehydroabietic acid] |  |  |  | 
 |  | C[P+](c1ccccc1)(c1ccccc1)c1ccccc1 [Methyltriphenylphosphonium] |  |  | 10.1 min | 162.96 Å²
 |  | CCCCCCCCCCCCCCCC(=O)NCCO [Palmitoylethanolamide] | 18.3 min | 193.35 Å² |  | 
 |  | COc1cc2ccc(=O)oc2c(O)c1O [Fraxetin] | 8.29 min | 138.67 Å² |  | 
 |  | CC(C)NCC(O)COc1ccc(COCCOC(C)C)cc1 (configuration not stated) [Bisoprolol] | 11 min | 191.63 Å² |  | 
 |  | CCCC[N+]1(C)[C@H]2CC(OC(=O)C(CO)c3ccccc3)C[C@H]1[C@H]1O[C@H]12 (some centres not stated) [Scopolamine-N-butyl] |  |  | 9.85 min | 188.31 Å²
 |  | CCCCN(C=O)CCCC [N,N-Di-n-butylformamide] | 13.5 min | 141.17 Å² |  | 
8.4 min | 134.48 Å² | CNS(=O)(=O)c1ccccc1 [N-Methylbenzenesulfonamide] |  |  |  | 
 |  | Nc1nc(N)nc(NC2CC2)n1 [Cyromazine] | 3.4 min | 134.76 Å² |  | 
5.24 min | 149.95 Å² | CC(C)N1C(=O)c2cc(O)ccc2NS1(=O)=O [6-Hydroxybentazone] |  |  |  | 
 |  | CCCCOC(=O)c1ccccc1C(=O)OCc1ccccc1 [Benzylbutylphthalate] | 16.3 min | 178.47 Å² |  | 
 |  | CN(Cc1cnc2nc(N)nc(N)c2n1)c1ccc(C(=O)N[C@@H](CCC(=O)O)C(=O)O)cc1 [Methotrexate] | 7.82 min | 197.21 Å² |  | 

Compound | reversed-phase LC retention time [1, 4] | collision cross section [2, 4] | reversed-phase LC retention time [1, 3] | collision cross section [2, 3] | reversed-phase LC retention time [1, 5] | collision cross section [2, 5]
O=P(O)(Oc1ccccc1)Oc1ccccc1 [Diphenylphosphate] | 10.8 min | 152.14 Å² | 17.6 min | 155.07 Å² |  | 
Cc1cc(C(F)(C(F)(F)F)C(F)(F)F)ccc1NC(=O)c1cccc(I)c1C(=O)NC(C)(C)CS(C)(=O)=O [Flubendiamide] | 15.8 min | 222.96 Å² |  |  |  | 
CC(c1ccc(O)cc1)c1ccc(O)cc1 [Bisphenol E] | 12.7 min | 156.4 Å² |  |  |  | 
Oc1cc(Cl)c(Cl)c(Cl)c1 [3,4,5-Trichlorophenol] | 14.7 min | 126.86 Å² |  |  |  | 
